Test: release profiles of drugs from halloysite tubule compositions, relative to total release amounts (FIGS. 4 and 5)
Assay type: physicochemical
Conditions: release from mineral-derived tubule composition relative to total release amount; FIG. 4 (Tetracycline), FIG. 5 (Khellin)
Description: FIGS. 4 and 5, respectively illustrate, relative to total release amounts, the release profiles for two drugs (Tetracycline and Khellin), wherein prolonged application periods are desired.

For `COc1c2occc2c(OC)c2c(=O)cc(C)oc12` [Khellin], which “release profile extends for” value is on record?
The value was “several days”.

From patent publication US20080194406A1, “METHOD FOR TREATING AGRICULTURAL CROPS USING MATERIALS ASSOCIATED WITH TUBULAR CARRIERS” (NaturalNano, Inc., priority 2005, published 2008)
